Patent publication US20100172854A1, “ANTIBACTERIAL FORMULATIONS” (priority 2007, published 2010)
Converted amounts (≈) assume the structure as drawn.

Assays:
[1] = system: Gardnerella vaginalis ATCC 14018; assay: MIC assay; type: cell-based; conditions: ATCC14018
Description: (§1) This is a standard international method for quantitatively assessing the antimicrobial activity of a compound in a liquid medium. The method used a sterile 96-well microtitre plate, capable of holding about 200 μl of liquid per well. The wells contained liquid culture medium and ranges of decreasing concentrations of the relevant test compound in doubling dilutions (e.g. 1000, 500, 250, 125 . . . μg/ml, etc. down to 0.49 μg/ml). The culture media were as described above.
(§2) The wells were inoculated with a liquid suspension of freshly grown micro-organism and incubated under the conditions described above. After incubation, the microtitre plate was examined visually (with the aid of a light box) for cloudiness in each well, which would indicate microbial growth. The MIC value was recorded as the lowest concentration of test compound required to inhibit microbial growth, i.e. the lowest concentration for which the liquid in the well remained clear.
(§3) The assays included both negative (culture medium with no micro-organisms) and positive (culture medium plus diluting solvent plus micro-organism) controls.

[2] = system: Streptococcus pyogenes ATCC 12344; assay: MIC assay; type: cell-based; conditions: ATCC12344; Streptococcus pyogenes ATCC 12344
Description: as §1, §2, §3

[3] = system: Clostridium difficile ATCC 7000057; assay: MIC assay; type: cell-based; conditions: Clostridioides difficile, ATCC7000057
Description: as §1, §2, §3

[4] = system: Streptococcus sobrinus ATCC 33478; assay: MIC assay; type: cell-based; conditions: ATCC33478
Description: as §1, §2, §3

[5] = system: Corynebacterium mucifaciens ATCC 700355; assay: MIC assay; type: cell-based; conditions: Corynebacterium mucifaciens, ATCC700355
Description: as §1, §2, §3

[6] = system: Clostridium sporogenes ATCC 3584; assay: MIC assay; type: cell-based; conditions: ATCC3584
Description: as §1, §2, §3

[7] = system: Enterococcus faecalis ATCC 29212; assay: MIC assay; type: cell-based; conditions: Enterococcus faecalis, ATCC29212
Description: as §1, §2, §3

[8] = system: Prevotella nigrescens ATCC 33563; assay: MIC assay; type: cell-based; conditions: ATCC33563
Description: as §1, §2, §3

[9] = system: Actinomyces naeslundii ATCC 12104; assay: MIC assay; type: cell-based
Description: as §1, §2, §3

[10] = system: Listeria monocytogenes ATCC 15313; assay: MIC assay; type: cell-based
Description: as §1, §2, §3

[11] = system: Bacillus cereus ATCC 11778; assay: MIC assay; type: cell-based
Description: as §1, §2, §3

a range of test bacteria = conditions: compound isolated from Aspergillus fumigatus, believed to be Antioxidant 2246; cited from earlier work
P. granulosum PRP-021 = assay: Agar dilution MIC assay; type: cell-based; conditions: Propionibacterium, PRP021, resistance phenotype MLS
Description: (§4) The propionibacteria were cultured and maintained on Wilkins-Chalgren Anaerobe Medium (agar and broth) at pH 6.0; all cultures were incubated anaerobically at 37° C. for 72 hours.
(§5) This is a standard international method for quantitatively assessing the antimicrobial activity of a compound in a solid medium. The test compound was prepared to 40× the highest concentration required (e.g. 10 mg/ml for a final concentration of 250 μg/ml) and a series of doubling dilutions were performed in a suitable solvent. A set amount of these antimicrobial stock solutions was then added to molten agar medium (ca. 55° C.), mixed thoroughly, poured into sterile Petri dishes and allowed to cool/set. The culture medium was as described above.
(§6) A Multipoint™ Inoculator (AQS Manufacturing Ltd, UK) was used to inoculate the plates by spotting the inocula onto the surface of the agar, delivering approximately 1 to 2 μl per spot (yielding 10^5 CFU (colony forming units) per spot).
(§7) The plate(s) were then incubated under the conditions described above, following which they were examined visually for signs of bacterial growth. The MIC value was ascertained when there was a marked reduction in, or total loss of, growth on the test plate at the lowest concentration as compared to that of the growth on the control plate.
(§8) The assays were conducted in triplicate and included a positive control (culture medium, diluting solvent and inoculum).

P. granulosum PRP-044 = assay: Agar dilution MIC assay; type: cell-based; conditions: Propionibacterium, PRP044, resistance phenotype MLS
Description: as §4, §5, §6, §7, §8

[12] = system: Propionibacterium acnes NCTC 737; assay: Agar dilution MIC assay; type: cell-based; conditions: Cutibacterium acnes, NCTC737, resistance phenotype None
Description: as §4, §5, §6, §7, §8

P. granulosum PRP-019 = assay: Agar dilution MIC assay; type: cell-based; conditions: Propionibacterium, PRP019, resistance phenotype MLSK
Description: as §4, §5, §6, §7, §8

[13] = system: Propionibacterium granulosum NCTC 11865; assay: Agar dilution MIC assay; type: cell-based; conditions: NCTC11865, resistance phenotype None
Description: as §4, §5, §6, §7, §8

P. granulosum PRP-005 = assay: Agar dilution MIC assay; type: cell-based; conditions: Propionibacterium, PRP005, resistance phenotype MLSK
Description: as §4, §5, §6, §7, §8

P. granulosum PRP-055 = assay: Agar dilution MIC assay; type: cell-based; conditions: Propionibacterium, PRP055, resistance phenotype None
Description: as §4, §5, §6, §7, §8

P. granulosum PRP-043 = assay: Agar dilution MIC assay; type: cell-based; conditions: Propionibacterium, PRP043, resistance phenotype MLS
Description: as §4, §5, §6, §7, §8

[14] = system: Staphylococcus haemolyticus ATCC 29970; assay: MBC assay; type: cell-based
Description: (§9) The staphylococci were cultured and maintained on Mueller-Hinton Medium (agar and broth) at pH 7.2; cultures were incubated aerobically at 37° C. for 19-20 hours.
(§10) This assay, normally carried out after an MIC assay, determines the minimum concentration of a compound that is lethal to the micro-organism being tested.
(§11) These samples were then individually sub-cultured on antibiotic-free agar medium, under the incubation conditions described above. Following incubation they were examined visually for microbial growth.

[15] = system: Staphylococcus aureus ATCC 12600; assay: MBC assay; type: cell-based
Description: as §9, §10, §11

[16] = system: Staphylococcus simulans ATCC 27848; assay: MBC assay; type: cell-based
Description: as §9, §10, §11

[17] = system: Staphylococcus hominis ATCC 27844; assay: MBC assay; type: cell-based
Description: as §9, §10, §11

[18] = system: Staphylococcus xylosus ATCC 29971; assay: MBC assay; type: cell-based
Description: as §9, §10, §11

Which MIC [1] does the source give for `Cc1cc(Cc2cc(C)cc(C(C)(C)C)c2O)c(O)c(C(C)(C)C)c1` [AO 2246, 2,2′-methylene-bis(4-methyl-6-tert-butylphenol)] here?
The MIC was 15.6 µg/mL (≈ 45.8 µM).

And the MIC [2]?
Its MIC is 0.98 µg/mL (≈ 2.88 µM).

What about the MIC [3] of the same compound?
The MIC was 3.9 µg/mL (≈ 11.5 µM).

What about the MIC [4] of the same compound?
The MIC was 15.6 µg/mL (≈ 45.8 µM).

What about the MIC [5] of the same compound?
The MIC was 1.95 µg/mL (≈ 5.73 µM).

And the MIC [6]?
The MIC was 3.9 µg/mL (≈ 11.5 µM).

And the MIC [7]?
Its MIC is 1.95 µg/mL (≈ 5.73 µM).

And the MIC [8]?
The MIC was 7.8 µg/mL (≈ 22.9 µM).

What about the MIC [9] of the same compound?
Its MIC is 1.95 µg/mL (≈ 5.73 µM).

What about the MIC [10] of the same compound?
The MIC was 1.95 µg/mL (≈ 5.73 µM).

And the MIC [11]?
Its MIC is 1.95 µg/mL (≈ 5.73 µM).

And the “in vitro antimicrobial activity” value (a range of test bacteria)?
Its value is “no in vitro antimicrobial activity”.

What about the MIC (P. granulosum PRP-021) of the same compound?
Its MIC is 3.9 µg/mL (≈ 11.5 µM).

What about the MIC (P. granulosum PRP-044) of the same compound?
Its MIC is 3.9 µg/mL (≈ 11.5 µM).

And the MIC [12]?
Its MIC is 3.9 µg/mL (≈ 11.5 µM).

What about the MIC (P. granulosum PRP-019) of the same compound?
The MIC was 3.9 µg/mL (≈ 11.5 µM).

What about the MIC [13] of the same compound?
Its MIC is 1.95 µg/mL (≈ 5.73 µM).

What about the MIC (P. granulosum PRP-005) of the same compound?
The MIC was 3.9 µg/mL (≈ 11.5 µM).

And the MIC (P. granulosum PRP-055)?
The MIC was 3.9 µg/mL (≈ 11.5 µM).

And the MIC (P. granulosum PRP-043)?
Its MIC is 1.95 µg/mL (≈ 5.73 µM).

What about the “MIC/MBC Ratio” value [14] of the same compound?
Its value is 1.

And the MBC ([14]; ATCC29970)?
Its MBC is 3.9 µg/mL (≈ 11.5 µM).

What about the “MIC/MBC Ratio” value [15] of the same compound?
The value was 0.06.

And the MBC ([15]; ATCC12600)?
The MBC was 15.6 µg/mL (≈ 45.8 µM).

What about the “MIC/MBC Ratio” value [16] of the same compound?
The value was 0.5.

What about the MBC ([16]; ATCC27848) of the same compound?
The MBC was 31.2 µg/mL (≈ 91.8 µM).

What about the “MIC/MBC Ratio” value [17] of the same compound?
The value was 0.25.

What about the MBC ([17]; ATCC27844) of the same compound?
Its MBC is 31.2 µg/mL (≈ 91.8 µM).

What about the “MIC/MBC Ratio” value [18] of the same compound?
The value was 1.

What about the MBC ([18]; ATCC29971) of the same compound?
The MBC was 3.9 µg/mL (≈ 11.5 µM).
